In ChEMBL document CHEMBL3046358, “Multiple Pro-197 substitutions in the acetolactate synthase of rigid ryegrass (Lolium rigidum) and their impact on chlorsulfuron activity and plant growth” (Crop Prot, 2012):

Legend:
Lolium rigidum [1] = assay: Herbicidal activity against Lolium rigidum accession A02 assessed as fresh weight reduction applied at 1 times pre-emergence recommended rate relative to untreated control; format: functional; design: scale not given: the % may be the effect or the level left
Lolium rigidum [2] = assay: Herbicidal activity against Lolium rigidum accession A15 assessed as emergence rate applied at 4 times pre-emergence recommended rate relative to untreated control; format: functional
Lolium rigidum [3] = assay: Herbicidal activity against Lolium rigidum accession A09 assessed as emergence rate applied at 4 times pre-emergence recommended rate relative to untreated control; format: functional
Lolium rigidum [4] = assay: Herbicidal activity against Lolium rigidum accession A04 assessed as emergence rate applied at 1 times pre-emergence recommended rate applied in pots where terbufos had been incorporated into the soil relative to untreated control; format: functional
Lolium rigidum [5] = assay: Herbicidal activity against Lolium rigidum accession A12 assessed as fresh weight reduction applied at 1 times pre-emergence recommended rate relative to untreated control; format: functional; design: scale not given: the % may be the effect or the level left
Lolium rigidum [6] = assay: Herbicidal activity against Lolium rigidum accession A02 assessed as fresh weight reduction applied at 4 times pre-emergence recommended rate relative to untreated control; format: functional; design: scale not given: the % may be the effect or the level left
Lolium rigidum [7] = assay: Herbicidal activity against Lolium rigidum accession A08 assessed as fresh weight reduction applied at 1 times pre-emergence recommended rate applied in pots where terbufos had been incorporated into the soil relative to untreated control; format: functional; design: scale not given: the % may be the effect or the level left
[8] = molecular target: T1, Acetolactate synthase (Lolium rigidum) (UniProt A7XBP7); assay: Resistance index, ratio of I50 for acetolactate synthase Ala-197/Ala-197 mutant in Lolium rigidum accession A05 leaves extracts to I50 for acetolactate synthase in Lolium rigidum accession A01 leaves extracts
T1 sequence (whole entry): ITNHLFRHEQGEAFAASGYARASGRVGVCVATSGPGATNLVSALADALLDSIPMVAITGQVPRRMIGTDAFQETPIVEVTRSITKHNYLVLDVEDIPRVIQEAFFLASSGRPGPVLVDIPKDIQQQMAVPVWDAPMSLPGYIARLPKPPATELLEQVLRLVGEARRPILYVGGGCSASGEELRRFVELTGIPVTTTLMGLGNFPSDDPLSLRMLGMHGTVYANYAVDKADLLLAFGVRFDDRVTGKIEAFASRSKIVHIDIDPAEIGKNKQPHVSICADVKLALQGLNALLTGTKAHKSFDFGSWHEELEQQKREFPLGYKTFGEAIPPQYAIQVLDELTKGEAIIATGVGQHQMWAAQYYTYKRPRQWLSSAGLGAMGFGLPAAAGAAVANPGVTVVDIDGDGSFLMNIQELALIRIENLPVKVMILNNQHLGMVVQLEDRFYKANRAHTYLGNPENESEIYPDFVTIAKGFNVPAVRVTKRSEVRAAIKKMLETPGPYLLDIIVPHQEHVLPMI

Lolium rigidum [9] = assay: Herbicidal activity against Lolium rigidum accession A14 assessed as emergence rate applied at 1 times pre-emergence recommended rate relative to untreated control; format: functional
Lolium rigidum [10] = assay: Herbicidal activity against Lolium rigidum accession A15 assessed as fresh weight reduction applied at 1 times pre-emergence recommended rate applied in pots where terbufos had been incorporated into the soil relative to untreated control; format: functional; design: scale not given: the % may be the effect or the level left
[11] = molecular target: T1, Acetolactate synthase (Lolium rigidum); assay: Resistance index, ratio of I50 for acetolactate synthase […]/Leu-197 mutant in Lolium rigidum accession A18 leaves extracts to I50 for acetolactate synthase in Lolium rigidum accession A01 leaves extracts
Lolium rigidum [12] = assay: Herbicidal activity against Lolium rigidum accession A12 assessed as fresh weight reduction applied at 1 times pre-emergence recommended rate applied in pots where terbufos had been incorporated into the soil relative to untreated control; format: functional; design: scale not given: the % may be the effect or the level left
Lolium rigidum [13] = assay: Herbicidal activity against Lolium rigidum accession A07 assessed as emergence rate applied at 1 times pre-emergence recommended rate applied in pots where terbufos had been incorporated into the soil relative to untreated control; format: functional
[14] = molecular target: T1, Acetolactate synthase (Lolium rigidum); assay: Resistance index, ratio of I50 for acetolactate synthase Leu-197/Leu-197 mutant in Lolium rigidum accession A08 leaves extracts to I50 for acetolactate synthase in Lolium rigidum accession A01 leaves extracts
Lolium rigidum [15] = assay: Herbicidal activity against Lolium rigidum accession A03 assessed as fresh weight reduction applied at 4 times pre-emergence recommended rate relative to untreated control; format: functional; design: scale not given: the % may be the effect or the level left

COc1nc(C)nc(NC(=O)NS(=O)(=O)c2ccccc2Cl)n1 [CHLORSULFURON]
Activity (Lolium rigidum [1]): 96%
Activity (Lolium rigidum [2]): 2%
Activity (Lolium rigidum [3]): 1%
Activity (Lolium rigidum [4]): 2%
Activity (Lolium rigidum [5]): 95%
Activity (Lolium rigidum [6]): 97%
Activity (Lolium rigidum [7]): 5%
Ratio [8]: 163
Activity (Lolium rigidum [9]): 1%
Activity (Lolium rigidum [10]): 97%
Ratio [11]: 54
Activity (Lolium rigidum [12]): 100%
Activity (Lolium rigidum [13]): 85%
Ratio [14]: 564
Activity (Lolium rigidum [15]): 91%
